Measurements published in patent US5985910A, “3- [4- (2- Phenyl-Indole-1-ylmethyl) Phenyl]- Acrylamides as estrogenic agents” (priority 1997, dated 1999).

Experiments:
Ishikawa cells = test: Ishikawa Cell Alkaline Phosphatase Assay; format: cell-based, human; settings: for % Activation (Compound ± 1 nM 17β-estradiol) (alkaline phosphatase): 10^-6 M compound + 1 nM 17β-estradiol, 48 h (antiestrogen test); for % Activation (alkaline phosphatase): compound alone, 48 h, percent of response related to 1 nM 17β-estradiol
Procedure: Ishikawa Cell Alkaline Phosphatase Assay
(§1) Cell Maintenance and Treatment
Ishikawa cells were maintained in DMEM/F12 (50%:50%) containing phenol red+10% fetal bovine serum and the medium was supplemented with 2 mM Glutamax, 1% Pen/Strap and 1 mM sodium pyruvate. Five days prior to the beginning of each experiment (treatment of cells) the medium was changed to phenol red-free DMEM/F12+10% dextran coated charcoal stripped serum. On the day before treatment, cells were harvested using 0.5% trypsin/EDTA and plated at a density of 5×10^4 cells/well in 96-well tissue culture plates. […] Cells were treated for 48 h prior to assay. […] Sample population for at each dose was n=8.
Alkaline Phosphatase Assay
At the end of 48 h the media is aspirated and cells are washed three times with phosphate buffered saline (PBS). 50 μL of lysis buffer (0.1 M Tris-HCl, pH 9.8, 0.2% Triton X-100) is added to each well. Plates are placed at -80° C. for a minimum of 15 minutes. Plates are thawed at 37° C. followed by the addition of 150 μL of 0.1 M Tris-HCl, pH 9.8, containing 4 mM para-nitrophenylphosphate (pNPP) to each well (final concentration, 3 mM pNPP).
Absorbance and slope calculations were made using the KineticCalc Application program (Bio-Tek Instruments, Inc., Winooski, Vt.). Results are expressed as the mean +/-S.D. of the rate of enzyme reaction (slope) averaged over the linear portion of the kinetic reaction curve (optical density readings every 5 minutes for 30 minutes absorbance reading).
Various compounds were assayed for estrogenic activity by the alkaline phosphatase method and corresponding ED50 values (95% C.I.) were calculated. The four listed in the following were used as reference standards:
A description of such methods is provided by Holinka, C. F., Hata, H., Kuramoto, H. and Gurpide, E. (1986) Effects of steroid hormones and antisteroids on alkaline phosphatase activity in human endometrial cancer cells (Ishikawa Line). Cancer Research, 46:2771-2774, and by Littlefield, B. A., Gurpide, E., Markiewicz, L., McKinley, B. and by Hochberg, R. B. (1990) A simple and sensitive microtiter plate estrogen bioassay based on stimulation alkaline phosphatase in Ishikawa cells; Estrogen action of D5 adrenal steroids. Endocrinology, 6:2757-2762.

uterus = settings: background; cited from earlier work
uteri = test: Rat Uterotrophic/Antiuterotrophic Bioassay (results headed 3-Day Ovariectomized Rat Model); format: in vivo, rat (Sprague-Dawley)
Procedure: Rat Uterotrophic/Antiuterotrophic Bioassay
Immature Sprague-Dawley rats (female, 18 days old) were tested in groups of six. […] On day 4 the animals were sacrificed by CO2 asphyxiation and their uteri were removed and stripped of excess lipid, any fluid removed and the wet weight determined. A small section of one horn was submitted for histology and the remainder used to isolate total RNA in order to evaluate complement component 3 gene expression.

bone = settings: background; cited from earlier work
ovariectomized rat = settings: background, cited from earlier work
estrogen receptor [1] = molecular target: T1, estrogen receptor (Homo sapiens, UniProt P03372); test: In Vitro Estrogen Receptor Binding Assay ([3H]-17β-estradiol competition, cytosol of CHO cells overexpressing the estrogen receptor); design: made in house; host or cells: CHO cells overexpressing the receptor; 100,000 g cytosol
T1 sequence (P03372 1-595): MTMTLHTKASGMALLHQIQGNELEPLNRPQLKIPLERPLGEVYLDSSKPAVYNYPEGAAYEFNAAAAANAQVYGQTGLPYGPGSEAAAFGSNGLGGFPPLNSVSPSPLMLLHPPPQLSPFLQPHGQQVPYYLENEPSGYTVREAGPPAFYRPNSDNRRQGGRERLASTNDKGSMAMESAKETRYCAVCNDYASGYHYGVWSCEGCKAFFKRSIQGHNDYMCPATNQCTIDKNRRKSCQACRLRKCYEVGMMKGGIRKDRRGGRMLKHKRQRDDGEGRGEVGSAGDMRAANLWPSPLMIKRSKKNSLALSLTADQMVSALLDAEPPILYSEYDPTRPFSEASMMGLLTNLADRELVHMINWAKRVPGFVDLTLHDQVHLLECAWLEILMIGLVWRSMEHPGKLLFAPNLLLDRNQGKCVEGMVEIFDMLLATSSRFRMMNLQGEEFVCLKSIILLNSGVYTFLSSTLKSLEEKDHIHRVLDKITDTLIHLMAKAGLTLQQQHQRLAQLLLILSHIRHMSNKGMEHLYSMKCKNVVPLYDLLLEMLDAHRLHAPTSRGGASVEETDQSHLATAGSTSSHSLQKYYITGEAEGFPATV
Procedure: In Vitro Estrogen Receptor Bonding Assay
CHO cells overexpressing the estrogen receptor were grown in 150 mm^2 dishes in DMEM+10% dextran coated charcoal, stripped fetal bovine serum. The plates were washed twice with PBS and once with 10 mM Tris-HCl, pH 7.4, 1 mM EDTA. Cells were harvested by scraping the surface and then the cell suspension was placed on ice. Cells were disrupted with a hand-held motorized tissue grinder using two, 10-second bursts. […] The cytosol was then frozen and stored at -80° C. Protein concentration of the cytosol was estimated using the BCA assay with reference standard protein.
100 uG/100 uL of the receptor preparation was aliquoted per well. […] The plate was incubated at room temperature for 2.5 h. […] 200 uL of the supernatant solution was then removed for scintillation counting. Samples were counted to 2% or 10 minutes, whichever occurs first. […] Also, wells containing radioactivity but no cytosol were processed with charcoal to estimate unremovable DPM of [^3 H] […].
Counts per minute (CPM) of radioactivity were automatically converted to disintegrated per minute (DPM) by the Beckman LS 7500 Scintillation Counter using a set of quenched standards to generate a H# for each sample.
((DPM sample-DPM not removed by charcoal)/(DPM estradiol-DPM not removed by charcoal))×100%=% of estradiol binding
For the generation of IC50 curves, % binding is plotted vs compound. […] For a description of these methods, see Hulme, E. C., ed. […] Receptor-Ligand Interactions: A Practical Approach. IRL Press, New York (see especially chapter 8).

estrogen receptor [2] = molecular target: T1, estrogen receptor; test: 2X VIT ERE Transfection (luciferase) Assay in CHO cells; format: cell-based; design: expressed in transfected cells; host or cells: Chinese Hamster Ovary (CHO) cells, stably transfected
Procedure: 2X VIT ERE Transfection Assay
as §1
Chinese Hamster Ovary cells (CHO) which had been stably transfected with the human estrogen receptor were maintained in DMEM+10% fetal bovine serum (FBS). 48 h prior to treatment the growth medium was replaced with DMEM lacking phenol red +10% dextran coated charcoal stripped FBS (treatment medium). Cells were plated at a density of 5000 cells/well in 96-well plates containing 200 μL of medium/well.
Calcium Phoshate Transfection
Reporter DNA (Promega plasmid pGL2 containing two tandem copies of the vitellogenin ERE in front of the minimal thymidine kinase promoter driving the luciferase gene) was combined with the B-galactosidase expression plasmid pCH110 (Pharmacia) and carrier DNA (pTZ18U) in the following ratio:
20 uL of this mixture was added to each well of cells and remained on the cells for 16 h. […] Each treatment condition was performed on 8 wells (n=8) which were incubated for 24 h prior to the luciferase assay.
After removing the PBS, 25 uL of Promega lysis buffer was added to each well and allowed to stand at room temperature for 15 min, followed by 15 min at -80° C. and 15 min at 37° C. 20 uL of lysate was transferred to an opaque 96 well plate for luciferase activity evaluation and the remaining lysate (5 uL) was used for the B-galactosidase activity evaluation (normalize transfection). The luciferan substrate (Promega) was added in 100 uL aliquots to each well automatically by the luminometer and the light produced (relative light units) was read 10 seconds after addition.
To the remaining 5 uL of lysate 45 uL of PBS was added. Then 50 uL of Promega B-galactosidase 2× assay buffer was added, mixed well and incubated at 37° C. for 1 hour. A plate containing a standard curve (0.1 to 1.5 milliunits in triplicate) was set up for each experimental run. The plates were analyzed on a Molecular Devices spectrophotometric plate reader at 410 nm. The optical densities for the unknown were converted to milliunits of activity by mathematical extrapolation from the standard curve.
The luciferase data was generated as relative light units (RLUs) accumulated during a 10 second measurement and automatically transferred to a JMP (SAS Inc) file where background RLUs were subtracted. The B-galactosidase values were automatically imported into the file and these values were divided into the RLUs to normalize the data. The mean and standard deviations were determined from a n=8 for each treatment. […] These techniques are described by Tzukerman, M. T., Esty, A., Santiso-Mere, D., Danielian, P., Parker, M. G., Stein, R. B., Pike, J. W. and McDonnel, D. P. (1994). Human estrogen receptor transactivational capacity was determined by both cellular and promoter context and mediated by two functionally distinct intramolecular regions (see Molecular Endocrinology, 8:21-30).

| Estrogen Receptor Affinity (RBA) (estrogen receptor [1]) | % Activation with 1 nM 17β-estradiol (luciferase) (estrogen receptor [2]; 1 uM compound + 1 nM 17β-estradiol, 24 h (antagonism)) | activation at 1 µM (estrogen receptor [2]; CHO, 24 h) | SMILES | % Activation (Compound ± 1 nM 17β-estradiol) (alkaline phosphatase) (Ishikawa cells) | % Activation (alkaline phosphatase) (Ishikawa cells) | effect in the uterus (in words) (uterus) | uterine wet weight, 10 μG (uteri; 10 μG compound, controls: tamoxifen/raloxifene 42.7, Example 7 20.2, Example 12 31.4, Example 11 24.5, Examples 14/15 29.1 mg) | uterine wet weight, 100 μG (uteri; 100 μG compound, controls: tamoxifen/raloxifene 42.7, Example 7 20.2, Example 12 31.4, Example 11 24.5, Examples 14/15 29.1 mg) | effect on the bone in humans (in words) (bone) | ability to spare bone (in words) (ovariectomized rat) | stimulation of uterine growth (in words) (ovariectomized rat; compared with Tamoxifen) | uterine wet weight, 100 μG plus 1 μG 17β-Estradiol (uteri; 100 μG compound + 1 μG 17β-estradiol, estradiol alone: Example 11 group 90.8, Examples 14/15 group 95.5 mg) |
| --- | --- | --- | --- | --- | --- | --- | --- | --- | --- | --- | --- | --- |
| – | – | – | CC/C(=C(\c1ccccc1)c1ccc(OCCN(C)C)cc1)c1ccccc1 [tamoxifen] | 45% | 0% | partial agonist in the uterus | 69.6 mg | 71.4 mg | estrogen agonist like effect on the bone | – | – | – |
| – | – | – | O=C(c1ccc(OCCN2CCCCC2)cc1)c1c(-c2ccc(O)cc2)sc2cc(O)ccc12 [raloxifene] | – | 5% | – | – | – | – | maintaining the ability to spare bone | stimulate uterine growth in the ovariectomized rat to a lesser extent than Tamoxifen | – |
| 80 | 12% | 8% | CCCCN(CCCC)C(=O)/C=C/c1ccc(Cn2c(-c3ccc(O)cc3)c(C)c3cc(O)ccc32)cc1 [Example 11, (E)-N,N-Dibutyl-3-{4-[5-hydroxy-2-(4-hydroxy-phenyl)-3-methyl-indol-1-ylmethyl]-phenyl}-acrylamide] | 11% | 6% | – | – | – | – | – | – | 81.0 mg |
